These results are taken from patent US8501166B2, “Pyrimidinyl indole compounds” (Hutchison Medipharma Limited, priority 2010, dated 2013).

Molecules are shown by their SMILES. Where a name gives a salt, the structure may show the parent alone.

The test system of test [1] is TNFα gene expression in U87MG xenograft. The experiment in a line: Inhibition of TNFα induced TNFα gene expression in U87MG xenograft. It is filed as in vivo, Balb/c athymic nude mice. The protocol: TNFα stimulates IKKβ signaling and triggers TNFα gene expression. In order to confirm that a compound is targeting IKKβ in vivo, the compound is screened for its ability to inhibit TNFα induced TNFα gene expression in a U87MG (human glioblastoma cell line) xenograft. 3×10^6 U87MG tumor cells are implanted subcutaneously into the right lateral flank of female Balb/c athymic nude mice (6-8 weeks old). […] Nude mice are orally administered with the test compound at 2 h prior to tumor harvesting. TNFα (R&D, Cat: 210-TA) is intravenously injected at 1 h before tumor harvesting at 8 μg/kg.
Total RNA is extracted using the RNEASY® mini Kit (QIAGEN®, Cat: 74126). cDNA is synthesized using the High Capacity cDNA reverse transcription kit (ABI, Cat: 4368813). Quantitative real-time PCR is carried out in a 7500 real-time PCR system (Applied Biosystems) using the corresponding primers/probes for human GAPDH gene(ABI Hs99999905_ml) and human TNFα gene(ABI Hs00174128_ml) and ABgene Absolute QPCR ROX 2× master mix(AB-1139/B).
TNFα gene expression is normalized to β-actin gene expression. The gene counts are read from PCR machine Inhibition (%)=(Counts of Model—Counts of Treatment)/(Counts of Model-Counts of Control)×100%. Example 1 is specifically detailed in Table 3.

Test [2] concerns LPS-induced plasma TNFα production. The experiment in a line: LPS-induced plasma cytokine production in mouse, TNFα. It counts as in vivo, Balb/c mice. The method, then: Balb/c mice (female, body weight from 18 to 20 g) are used in these experiments. The dose dependency, time course study and pharmacokinetic/pharmacodynamic relationship of the test compound are conducted in mice treated with LPS (0.4 mg/kg).
Eight mice/group are administrated with 1 to 100 mg/kg of either the test compound (suspension in 10% acacia) or vehicle by oral gavage at 1 h prior to intraperitoneal injection of 0.4 mg/kg LPS. Ninety minutes after LPS administration, blood samples are collected in tubes containing heparin for anticoagulation. Plasma samples are diluted 3-fold with dilution buffer (R&D, Cat.No. Part 895206, Calibrator Diluent RD5Z). TNFα levels are measured using ELISA kit (R&D, Cat.No. MTA00) based on manufacture's protocol. Data is acquired using a SPECTRAMAX® M2e Plus Plate Reader and analyzed by standard curve fitting.
(§1) Alternately, the compound is screened for its ability to inhibit the LPS-induced cytokine production in rat plasma according to the method reported in the literature (Ziegelbauer K, Gantner F, Lukacs N W, et al. Br J. Pharmacol. 2005,145(2):178-92). Briefly, Lewis rats (male, body weight 140 g-180 g) are used in the experiments. Animals (8/group) are given 1 to 100 mg/kg of the testing compound (suspension in 35% solutol & 60% PEG400 & 5% PG) or vehicle by oral gavage at 1 h prior to intraperitoneal administration of LPS 0.4 mg/kg. Ninety minutes after the intraperitoneal administration of LPS, blood is collected in heparin anticoagulated tubes to measure TNFα using R&D System ELISA Kit based on the general Kit protocols. The plasma sample is diluted 100 fold with the dilution buffer and 50 μL of diluted sample is used in each measurement. The plate is read on a SPECTRAMAX® M2e Plus Plate Reader and TNFα levels are analyzed based on the standard curve. The drug levels in plasma are measured with LC-MS-MS. […] Alternately, the compound is screened for its ability to inhibit the LPS-induced cytokine production in mouse plasma. Balb/c mice (female, body weight 18-20 g) are used in the experiments. Mice (8/group) are administrated with 1 to 100 mg/kg of the test compound (suspension in 10% acacia) or vehicle by oral gavage at 1 h prior to introperitoneal (i.p.) administration of LPS (0.4 mg/kg). Ninety minutes after LPS administration, blood is collected with heparin anticoagulated tubes to measure TNFα levels (R&D, Cat.No. MTA00), IL-6 (R&D, Cat.No. M6000B) and IL-1β (R&D, Cat.No. MLB00B) based on the general kit protocols. Diluted or undiluted plasma samples of 50 μL are used for each measurement. […] The plate is read on a SPECTRMAX® M2e Plus Plate Reader and the data is analyzed using a standard curve.

Test [3] deals with LPS-induced plasma IL-1β production. As to the kind of experiment: LPS-induced plasma cytokine production in mouse, IL-1β. It is filed as in vivo, Balb/c mice. As to conditions: even at the dose of 100 mg/kg. The protocol:
as §1, with “experiments.” for “experiments. Mice (8/group) are administrated with 1 to 100 mg/kg of the test compound (suspension in 10% acacia) or vehicle by oral gavage at 1 h prior to introperitoneal (i.p.) administration of LPS (0.4 mg/kg). Ninety minutes after LPS administration, blood is collected with heparin anticoagulated tubes to measure TNFα levels (R&D, Cat.No. MTA00), IL-6 (R&D, Cat.No. M6000B) and IL-1β (R&D, Cat.No. MLB00B) based on the general kit protocols. Diluted or undiluted plasma samples of 50 μL are used for each measurement.”

Test [4] deals with DNBS-induced colitis. The experiment in a line: DNBS-induced colitis in rat. As to conditions: 3, 10, 30 and 60 mg/kg oral, six days. It counts as in vivo, Wistar rats. The protocol: A compound is tested in DNBS-induced colitis model in rat essentially as described in a method reported in the literature (Gut. 2002; 50(3):440-1). Briefly, Wistar rats are used in the experiments. Following the induction of distal colitis by intra-colonic instillation of DNBS, the test compound at doses of 3, 10, 30, 60 mg/kg (bid) is administered to rats orally for six days. The negative control group is treated with the vehicle alone without DNBS instillation. The vehicle-control group rats are DNBS-induced and treated with vehicle. In the positive control group, sulfasalazine is orally administered to the rats at 300 mg/kg daily for six consecutive days. Animals are euthanized 24 h after the final treatment. Colon-to-body weight ratio and colonic damage scores are calculated for each animal. Vehicle treatment of rats results in a progressive worsening of clinical symptoms, achieving a maximum colonic damage score of 6.1±0.6 and colon-to-body weight ratio-colon length of 0.96±0.10 on day 7 after instillation. In this DNBS-induced inflammatory bowel disease model, rats treated with Example 2 at doses of 3, 10, 30 and 60 mg/kg show a marked reduction in colonic damage scores, colon-to-body weight-to-colon length ratio with more than 30% reduction.

Where [5] appears, read: mouse, oral 1 h before LPS 0.4 mg/kg i.p.

By inhibition is commonly meant how much of the control response was suppressed. Low readings indicate a weak effect, high ones a strong effect. The term EC50 denotes the concentration that produces a half-maximal response. A low value points to an effect from little substance. A word on the ED50: it is the dose that gives a 50% effect, or the effect in half of the subjects. A high value points to a need for a large dose.

Turning to `O=C(NC1CC1)c1cccc2[nH]c(-c3nc(N[C@@H]4CCC[C@@H]4O)ncc3Cl)cc12` [Example 1, 2-{5-Chloro-2-[(1R,2S)-2-hydroxycyclopentylamino]pyrimidin-4-yl}-N-cyclopropyl-1H-indole-4-carboxamide hydrochloride], the “Inhibition Rate (%) of TNFα induced TNFα gene expression” value is given as 49.1% in test [1] (10 mg/kg oral, 2 h); 68.5% in test [1] (30 mg/kg oral, 2 h); 86.2% in test [1] (60 mg/kg oral, 2 h); 94.9% in test [1] (100 mg/kg oral, 2 h). In test [2] (10 mg/kg oral 1 h before LPS 0.4 mg/kg, 90 min after LPS, baseline 2346.2 pg/mL), the “plasma TNFα level” value is recorded as 1474.9 pg/mL. Besides, in test [2] (Mus musculus, 10 mg/kg oral 1 h before LPS 0.4 mg/kg, p<0.01), testing at 10 mg/kg gave an inhibition of 37.1%.

For the compound `Cl.O=C(NC1CC1)c1cccc2[nH]c(-c3nc(N[C@@H]4CCC[C@H]4O)ncc3Cl)cc12` [Example 2, 2-{5-Chloro-2-[(1R,2R)-2-hydroxycyclopentylamino]pyrimidin-4-yl}-N-cyclopropyl-1H-indole-4-carboxamide hydrochloride], the “Inhibition Rate (%) of TNFα induced TNFα gene expression” value in test [1] (Table 4, 3 mg/kg oral) is 10.7%; in test [1] (Table 4, 10 mg/kg oral), 25.3%; in test [1] (Table 4, 30 mg/kg oral), 69.7%; in test [1] (Table 4, 60 mg/kg oral), 87.8%. Moreover, the concentration giving a half-maximal response (EC50) in test [2] (setting [5]) is ~2.42 µg/mL. Also, the ED50 in test [2] (setting [5]) was found to be 4.84 mg/kg. Further, the “effect on IL-1β production” value in test [3] is “no effect was observed”. For the same compound, the “reduction in colonic damage scores, colon-to-body weight-to-colon length ratio” value in test [4] is “more than 30%”.
